Reference: patent US20230312752A1 (Brown University, priority 2021, published 2023)
Where a name gives a salt, the structure may show the parent alone.

test system: CLK; assay: not given; set-up: key: + is used to indicate the potency of the inhibitor; ++++ > +++ > ++ > +; + is used to indicate the potency of the inhibitor; ++++ > +++ > ++ > +; + is used to indicate the potency of the inhibitor; ++++ > +++ > ++ > +; + is used to indicate the potency of the inhibitor; ++++ > +++ > ++ > +; ◯ refers to compounds with inhibitory effects on the related isoform, but without specific value; details: cited from earlier work

Row | Molecule | Inhibitory potency CLK
1 | NVP-LCQ195 | ◯
2 | TG003 | +++
3 | ML167 | ++

target: CDK6 (Homo sapiens, UniProt Q00534); assay: not given; set-up: key to the marks not given beside the values; details: cited from earlier work
Sequence (Q00534 whole entry): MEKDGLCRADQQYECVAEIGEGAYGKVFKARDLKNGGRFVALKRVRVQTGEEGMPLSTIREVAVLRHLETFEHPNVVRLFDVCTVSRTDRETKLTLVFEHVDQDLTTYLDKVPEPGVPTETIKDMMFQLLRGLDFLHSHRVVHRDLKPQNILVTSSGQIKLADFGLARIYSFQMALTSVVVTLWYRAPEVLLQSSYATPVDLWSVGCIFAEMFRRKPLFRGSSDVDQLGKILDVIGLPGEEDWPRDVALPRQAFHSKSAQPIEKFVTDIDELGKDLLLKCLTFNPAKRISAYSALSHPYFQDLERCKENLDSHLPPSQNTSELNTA
Sequence (P30281 whole entry, further chain): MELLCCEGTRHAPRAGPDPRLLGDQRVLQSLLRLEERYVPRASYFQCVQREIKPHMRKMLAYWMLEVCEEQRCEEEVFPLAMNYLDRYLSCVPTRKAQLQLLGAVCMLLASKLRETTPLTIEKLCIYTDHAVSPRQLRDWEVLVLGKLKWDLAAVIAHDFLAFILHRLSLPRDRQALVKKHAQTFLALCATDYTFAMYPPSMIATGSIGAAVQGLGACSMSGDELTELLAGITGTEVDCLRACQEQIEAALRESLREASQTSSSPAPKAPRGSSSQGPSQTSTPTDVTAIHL

Row | Molecule | Inhibitory potency CDK6
4 | Palbociclib Isethionate | +++
5 | O=C(NC1CCNCC1)c1[nH]ncc1NC(=O)c1c(Cl)cccc1Cl [AT7519 HCl] | ++
6 | CN1CC[C@H](c2c(O)cc(O)c3c(=O)cc(-c4ccccc4Cl)oc23)[C@H](O)C1 [Flavopiridol] | ++
7 | Nc1nc(Nc2ccc(S(N)(=O)=O)cc2)nn1C(=O)c1c(F)cccc1F [JNJ-7706621] | ++

target: CDK7 (Homo sapiens, UniProt P50613); assay: not given; details: cited from earlier work
Sequence (P50613 whole entry): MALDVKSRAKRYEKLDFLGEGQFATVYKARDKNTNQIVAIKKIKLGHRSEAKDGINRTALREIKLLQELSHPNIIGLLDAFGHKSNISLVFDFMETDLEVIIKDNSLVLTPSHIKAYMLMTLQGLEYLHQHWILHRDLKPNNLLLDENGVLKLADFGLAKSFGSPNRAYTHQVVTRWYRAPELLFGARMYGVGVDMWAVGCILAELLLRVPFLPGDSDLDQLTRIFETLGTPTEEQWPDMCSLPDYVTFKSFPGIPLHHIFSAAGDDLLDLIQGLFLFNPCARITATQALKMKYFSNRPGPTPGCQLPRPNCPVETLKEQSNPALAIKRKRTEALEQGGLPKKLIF
Sequence (P51946 whole entry, further chain): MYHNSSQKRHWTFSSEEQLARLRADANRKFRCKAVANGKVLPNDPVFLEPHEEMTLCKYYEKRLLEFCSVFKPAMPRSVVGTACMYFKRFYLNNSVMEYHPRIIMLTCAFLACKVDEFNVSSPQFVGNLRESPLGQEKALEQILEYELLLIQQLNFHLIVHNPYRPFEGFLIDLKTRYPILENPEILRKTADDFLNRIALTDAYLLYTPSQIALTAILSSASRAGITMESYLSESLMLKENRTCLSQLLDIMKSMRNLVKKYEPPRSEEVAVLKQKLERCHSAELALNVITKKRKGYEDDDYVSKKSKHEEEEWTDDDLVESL
Sequence (P51948 whole entry, further chain): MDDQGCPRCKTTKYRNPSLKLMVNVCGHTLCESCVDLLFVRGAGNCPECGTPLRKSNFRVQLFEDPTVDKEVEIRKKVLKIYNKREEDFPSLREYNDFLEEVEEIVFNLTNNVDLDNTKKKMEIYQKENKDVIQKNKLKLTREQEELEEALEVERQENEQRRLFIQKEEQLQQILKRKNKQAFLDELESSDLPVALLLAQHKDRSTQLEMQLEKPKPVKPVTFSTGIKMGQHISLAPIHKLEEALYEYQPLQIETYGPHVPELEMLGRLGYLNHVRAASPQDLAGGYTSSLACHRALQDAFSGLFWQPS

Row | Molecule | Inhibitory potency CDK7
8 | O=C(NC1CCNCC1)c1[nH]ncc1NC(=O)c1c(Cl)cccc1Cl [AT7519] | +
9 | CN1CC[C@H](c2c(O)cc(O)c3c(=O)cc(-c4ccccc4Cl)oc23)[C@H](O)C1 [Flavopiridol] | +
10 | CNC(=O)c1nn(C)c2c1C(C)(C)Cc1cnc(Nc3ccc(N4CCN(C)CC4)cc3)nc1-2 [Milciclib] | ++
11 | CC(C)CC(=O)Nc1[nH]nc2c1CN(C(=O)C1CCN(C)CC1)C2(C)C [PHA-793887] | ++++

target: CDK9 (Homo sapiens, UniProt P50750); assay: not given; set-up: key: + is used to indicate the potency of the inhibitor; ++++ > +++ > ++ > +; + is used to indicate the potency of the inhibitor; ++++ > +++ > ++ > +; + is used to indicate the potency of the inhibitor; ++++ > +++ > ++ > +; + is used to indicate the potency of the inhibitor; ++++ > +++ > ++ > +; ◯ refers to compounds with inhibitory effects on the related isoform, but without specific value; details: cited from earlier work
Sequence (P50750 whole entry, canonical isoform): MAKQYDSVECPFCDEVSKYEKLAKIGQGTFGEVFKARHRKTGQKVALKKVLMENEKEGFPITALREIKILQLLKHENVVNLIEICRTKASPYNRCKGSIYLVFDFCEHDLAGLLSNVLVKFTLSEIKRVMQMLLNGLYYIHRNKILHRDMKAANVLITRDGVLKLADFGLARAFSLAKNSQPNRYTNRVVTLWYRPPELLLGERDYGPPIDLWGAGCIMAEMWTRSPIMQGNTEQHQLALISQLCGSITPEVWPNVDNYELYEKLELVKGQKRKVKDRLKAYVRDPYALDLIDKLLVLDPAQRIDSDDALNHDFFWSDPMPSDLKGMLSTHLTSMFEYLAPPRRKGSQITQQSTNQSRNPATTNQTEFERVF
Sequence (O60563 whole entry, further chain, canonical isoform): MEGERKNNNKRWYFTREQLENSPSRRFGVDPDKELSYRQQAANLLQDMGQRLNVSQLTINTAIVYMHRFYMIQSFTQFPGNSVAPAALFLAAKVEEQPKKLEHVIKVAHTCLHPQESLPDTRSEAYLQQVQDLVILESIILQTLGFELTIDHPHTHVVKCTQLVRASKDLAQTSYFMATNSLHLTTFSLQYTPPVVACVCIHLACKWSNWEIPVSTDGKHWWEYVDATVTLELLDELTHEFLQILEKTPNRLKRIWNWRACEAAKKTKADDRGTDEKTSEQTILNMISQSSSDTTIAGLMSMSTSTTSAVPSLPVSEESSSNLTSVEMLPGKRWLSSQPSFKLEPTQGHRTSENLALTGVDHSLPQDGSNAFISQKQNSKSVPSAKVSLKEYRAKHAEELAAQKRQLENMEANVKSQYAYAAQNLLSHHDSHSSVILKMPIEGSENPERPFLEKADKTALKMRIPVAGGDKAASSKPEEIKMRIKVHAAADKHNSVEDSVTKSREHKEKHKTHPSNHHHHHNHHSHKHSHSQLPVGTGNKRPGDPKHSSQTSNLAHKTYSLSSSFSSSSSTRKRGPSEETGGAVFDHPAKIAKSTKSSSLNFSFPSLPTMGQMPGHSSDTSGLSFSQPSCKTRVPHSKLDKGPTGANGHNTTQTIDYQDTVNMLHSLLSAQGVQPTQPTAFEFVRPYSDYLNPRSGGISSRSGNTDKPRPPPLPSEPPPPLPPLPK

Row | Molecule | Inhibitory potency CDK9
12 | O=C(NC1CCNCC1)c1[nH]ncc1NC(=O)c1c(Cl)cccc1Cl [AT7519 HCl] | ++++
13 | NVP-LCQ195 | ◯
14 | COc1c(O)cc(O)c2c(=O)cc(-c3ccccc3)oc12 [Wogonin] | ◯
15 | Cc1ncc(-c2ccnc(Nc3ccc(S(C)(=O)=O)cc3)n2)n1C(C)C [AZD5438] | +++
16 | LDC000067 | +++
17 | CC(C)(C)c1cnc(CSc2cnc(NC(=O)C3CCNCC3)s2)o1 [SNS-032] | ++++
18 | PHA-767491 | +++
19 | CC(C)CC(=O)Nc1[nH]nc2c1CN(C(=O)C1CCN(C)CC1)C2(C)C [PHA-793887] | ++

target: CDK1 (Homo sapiens, UniProt P06493); assay: not given; details: cited from earlier work
Sequence (P06493 whole entry, species assumed): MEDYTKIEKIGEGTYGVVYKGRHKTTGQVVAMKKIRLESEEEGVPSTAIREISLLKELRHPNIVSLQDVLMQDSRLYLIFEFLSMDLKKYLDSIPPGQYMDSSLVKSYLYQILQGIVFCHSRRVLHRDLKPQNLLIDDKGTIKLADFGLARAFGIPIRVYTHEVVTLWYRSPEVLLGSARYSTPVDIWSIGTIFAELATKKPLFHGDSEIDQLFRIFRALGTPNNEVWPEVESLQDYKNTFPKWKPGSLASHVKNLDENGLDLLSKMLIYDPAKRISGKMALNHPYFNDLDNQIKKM
Sequence (P14635 whole entry partner, species assumed): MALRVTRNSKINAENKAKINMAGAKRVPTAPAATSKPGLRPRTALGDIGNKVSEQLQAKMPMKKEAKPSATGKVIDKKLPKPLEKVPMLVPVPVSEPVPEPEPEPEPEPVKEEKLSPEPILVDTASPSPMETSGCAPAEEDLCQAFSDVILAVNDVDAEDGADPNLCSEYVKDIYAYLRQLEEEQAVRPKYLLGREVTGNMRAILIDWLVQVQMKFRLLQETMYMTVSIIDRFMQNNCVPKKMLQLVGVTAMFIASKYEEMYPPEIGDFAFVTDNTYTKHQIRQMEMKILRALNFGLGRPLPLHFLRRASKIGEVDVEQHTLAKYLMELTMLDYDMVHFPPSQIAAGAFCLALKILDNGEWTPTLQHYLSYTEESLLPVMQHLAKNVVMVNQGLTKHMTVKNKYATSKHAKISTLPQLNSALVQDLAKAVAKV

Row | Molecule | Inhibitory potency CDK1
20 | O=C(NC1CCNCC1)c1[nH]ncc1NC(=O)c1c(Cl)cccc1Cl [AT7519 HCl] | ++
21 | COc1ccc(CNc2nc(N(CCO)CCO)nc3c2ncn3C(C)C)cc1 [CVT 313] | +
22 | NU6027 | +
23 | NVP-LCQ195 | ++++
24 | Cc1ncc(-c2ccnc(Nc3ccc(S(C)(=O)=O)cc3)n2)n1C(C)C [AZD5438] | +++
25 | CN1CC[C@H](c2c(O)cc(O)c3c(=O)cc(-c4ccccc4Cl)oc23)[C@H](O)C1 [Flavopiridol] | +++
26 | C[C@H]1CC[C@H](n2c3cnccc3c3cnc(Nc4ccc5c(n4)CCN(C(=O)CO)C5)nc32)CC1 [AMG-925] | +
27 | NU 6102 | +++
28 | LDC000067 | +
29 | Kenpaulione | +
30 | CGP60474 | +++
31 | CC(C)(C)c1cnc(CSc2cnc(NC(=O)C3CCNCC3)s2)o1 [SNS-032] | +
32 | Ro-3306 | +++
33 | Nc1nc(Nc2ccc(S(N)(=O)=O)cc2)nn1C(=O)c1c(F)cccc1F [JNJ-7706621] | ++++
34 | PHA-767491 | ++
35 | NU2058 | +
36 | CNC(=O)c1nn(C)c2c1C(C)(C)Cc1cnc(Nc3ccc(N4CCN(C)CC4)cc3)nc1-2 [Milciclib] | +
37 | CC(C)CC(=O)Nc1[nH]nc2c1CN(C(=O)C1CCN(C)CC1)C2(C)C [PHA-793887] | ++
38 | CCCCOc1c(C(=O)c2c(F)cc(C)cc2F)c[nH]c2nncc1-2 [BMS-265246] | ++++

test system: pseudoviruses with delta S proteins; assay: not given; type: cell-based, SARS-CoV-2; details: not given

Row | Molecule | delta pseudovirus infection
39 | rhCHI3L1: recombinant human CHI3L1 (chitinase 3 like 1) protein, from R&D Inc. or generated at Brown University | augmented

test system: pseudovirus with the ancestral G614 S protein; assay: not given; type: cell-based, SARS-CoV-2; details: not given

Row | Molecule | uptake of pseudovirus
40 | rhCHI3L1: recombinant human CHI3L1 (chitinase 3 like 1) protein, from R&D Inc. or generated at Brown University | potent stimulator

test system: ACE2, TMPRSS2, and CTSL; assay: mRNA levels in normal human small airway epithelial cells (qRT-PCR); type: cell-based; details: normal HSAEC, rhCHI3L1 500 ng/mL, 24 hours
Experimental: HSAEC were incubated with the noted concentrations of recombinant rhCHI3L1 for 24 hours. The levels of mRNA encoding ACE2, TMPRSS2, and CTSL were assessed via qRT-PCR. The levels are expressed in relationship to GAPDH controls. *p<0.05 (Student's t-test).
(§1) Total cellular RNA was obtained using TRIzol reagent (ThermoFisher Scientific) followed by RNA extraction using RNeasy Mini Kit (Qiagen, Germantown, MD) according to the manufacturer's instructions. mRNA was measured and used for real time (RT)-PCR as described previously.^79,80 The primer sequences used in these studies are summarized in Table 1. Ct values of the test genes were normalized to the internal housekeeping gene β-actin.
In the present study, normal HSAEC were incubated with 0, 100 ng/mL, or 500 ng/mL of rhCHI3L1 for 24 hours at 37° C. The levels of mRNA encoding ACE2, TMPRSS2, and CTSL were assessed via qRT-PCR and expressed in relationship to GAPDH controls.

Row | Molecule | levels of mRNA encoding ACE2, TMPRSS2, and CTSL
41 | rhCHI3L1: recombinant human CHI3L1 (chitinase 3 like 1) protein, from R&D Inc. or generated at Brown University | significantly upregulated

target: CDK4 (Homo sapiens, UniProt P11802); assay: not given; details: cited from earlier work
Sequence (P11802 whole entry, species assumed): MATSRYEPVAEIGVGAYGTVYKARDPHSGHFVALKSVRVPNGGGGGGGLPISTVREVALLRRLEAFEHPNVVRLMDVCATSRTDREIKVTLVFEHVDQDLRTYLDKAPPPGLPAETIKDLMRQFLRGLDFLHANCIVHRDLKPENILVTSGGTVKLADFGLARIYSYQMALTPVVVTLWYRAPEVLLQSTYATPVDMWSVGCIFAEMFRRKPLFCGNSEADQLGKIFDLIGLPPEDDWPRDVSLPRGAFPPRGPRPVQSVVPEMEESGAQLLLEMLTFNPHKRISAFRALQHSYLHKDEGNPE
Sequence (P24385 whole entry partner, species assumed): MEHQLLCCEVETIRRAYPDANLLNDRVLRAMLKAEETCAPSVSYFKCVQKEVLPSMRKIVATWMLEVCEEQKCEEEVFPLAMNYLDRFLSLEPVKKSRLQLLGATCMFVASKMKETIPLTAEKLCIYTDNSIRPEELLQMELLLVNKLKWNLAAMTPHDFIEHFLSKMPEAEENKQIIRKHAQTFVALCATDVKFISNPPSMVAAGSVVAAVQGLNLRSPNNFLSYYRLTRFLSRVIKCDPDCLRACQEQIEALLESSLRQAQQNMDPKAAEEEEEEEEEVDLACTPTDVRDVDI

Row | Molecule | Inhibitory potency CDK4
42 | O=C(NC1CCNCC1)c1[nH]ncc1NC(=O)c1c(Cl)cccc1Cl [AT7519 HCl] | ++
43 | COc1ccc(CNc2nc(N(CCO)CCO)nc3c2ncn3C(C)C)cc1 [CVT 313] | +
44 | CN1CC[C@H](c2c(O)cc(O)c3c(=O)cc(-c4ccccc4Cl)oc23)[C@H](O)C1 [Flavopiridol] | +++
45 | C[C@H]1CC[C@H](n2c3cnccc3c3cnc(Nc4ccc5c(n4)CCN(C(=O)CO)C5)nc32)CC1 [AMG-925] | ++++
46 | NU 6102 | +
47 | LDC000067 | +
48 | Nc1nc(Nc2ccc(S(N)(=O)=O)cc2)nn1C(=O)c1c(F)cccc1F [JNJ-7706621] | +
49 | Purvalanol A | +
50 | CNC(=O)c1nn(C)c2c1C(C)(C)Cc1cnc(Nc3ccc(N4CCN(C)CC4)cc3)nc1-2 [Milciclib] | ++
51 | CC(C)CC(=O)Nc1[nH]nc2c1CN(C(=O)C1CCN(C)CC1)C2(C)C [PHA-793887] | ++
52 | CCCCOc1c(C(=O)c2c(F)cc(C)cc2F)c[nH]c2nncc1-2 [BMS-265246] | ++

test system: ACE2; assay: not given; type: cell-based, human; details: not given

Row | Molecule | ability of CHI3L1 to stimulate ACE2 mRNA accumulation | levels of basal ACE2 expression
53 | CN1CC[C@H](c2c(O)cc(O)c3c(=O)cc(-c4ccccc4Cl)oc23)[C@H](O)C1 [Flavopiridol] | potently inhibited | diminished

same assay, conditions: Calu-3 cells, rhCHI3L1 250 ng/mL, 24 hours, vs vehicle

Row | Molecule | levels of mRNA encoding ACE2
54 | rhCHI3L1: recombinant human CHI3L1 (chitinase 3 like 1) protein, from R&D Inc. or generated at Brown University | significantly upregulated

test system: pseudovirus containing the S protein (D614 and G614 variants); assay: not given; type: cell-based; details: Calu-3 cells, rCHI3L1 24 hours, GFP

Row | Molecule | cellular integration of S proteins
55 | rhCHI3L1: recombinant human CHI3L1 (chitinase 3 like 1) protein, from R&D Inc. or generated at Brown University | stimulated

target: CDK5 (Homo sapiens, UniProt Q00535); assay: not given; details: cited from earlier work
Sequence (Q15078 99-307): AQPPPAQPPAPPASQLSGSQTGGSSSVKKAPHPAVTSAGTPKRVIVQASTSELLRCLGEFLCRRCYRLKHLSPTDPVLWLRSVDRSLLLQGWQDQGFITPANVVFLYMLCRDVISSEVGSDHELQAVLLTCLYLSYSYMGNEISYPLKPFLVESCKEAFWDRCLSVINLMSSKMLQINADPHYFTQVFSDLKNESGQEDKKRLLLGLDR
Sequence (Q00535 whole entry): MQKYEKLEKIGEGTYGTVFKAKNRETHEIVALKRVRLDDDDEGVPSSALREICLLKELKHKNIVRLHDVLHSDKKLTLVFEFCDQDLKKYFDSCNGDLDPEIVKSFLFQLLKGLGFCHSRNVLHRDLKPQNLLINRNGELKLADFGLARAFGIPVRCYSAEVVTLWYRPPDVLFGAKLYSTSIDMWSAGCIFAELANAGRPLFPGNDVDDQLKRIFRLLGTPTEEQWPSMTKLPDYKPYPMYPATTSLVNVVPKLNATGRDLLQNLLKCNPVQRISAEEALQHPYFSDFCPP

Row | Molecule | Inhibitory potency CDK5
56 | O=C(NC1CCNCC1)c1[nH]ncc1NC(=O)c1c(Cl)cccc1Cl [AT7519 HCl] | +++
57 | NVP-LCQ195 | ++++
58 | Kenpaulione | +
59 | Purvalanol B | ++++
60 | CC(C)(C)c1cnc(CSc2cnc(NC(=O)C3CCNCC3)s2)o1 [SNS-032] | +
61 | PHA-767491 | +
62 | CNC(=O)c1nn(C)c2c1C(C)(C)Cc1cnc(Nc3ccc(N4CCN(C)CC4)cc3)nc1-2 [Milciclib] | +
63 | CC(C)CC(=O)Nc1[nH]nc2c1CN(C(=O)C1CCN(C)CC1)C2(C)C [PHA-793887] | ++++

test system: ACE2; assay: Immunocytochemical evaluation of ACE2 in Calu-3 cells; type: cell-based, human; details: CHI3L1 250 ng/mL; double labeled ICC

Row | Molecule | Calu-3 cell ACE2 accumulation
64 | rhCHI3L1: recombinant human CHI3L1 (chitinase 3 like 1) protein, from R&D Inc. or generated at Brown University | augmented

test system: ACE2, TMPRSS2, and CTSL; assay: mRNA levels in A549 cells (qRT-PCR); type: cell-based, human; details: rhCHI3L1 500 ng/mL, 24 hr, 37° C.
Experimental: Cells were incubated with rhCHI3L1 from a commercial source (R&D Inc.) and rhCHI3L1 generated at Brown University (Brown) and compared to vehicle controls. mRNA was then extracted and the levels of mRNA for ACE2 and CTSL were evaluated by real time qRT-PCR. Levels were expressed in relationship to GAPDH controls. *p<0.05; **p<0.01 (Student's t-test).
A549 cells were incubated with the noted concentrations of rhCHI3L1 for the note amounts of time. The levels of mRNA encoding ACE2, TMPRSS2, and CTSL were assessed via qRT-PCR. The statistics compare cells incubated with vehicle control (nothing tested, NT) and cells incubated with 250 ng/ml of rhCHI3L1. […]
as §1, with “Ct values of the test genes were normalized to the internal housekeeping gene β-actin.” left out
In the first study, A549 cells were incubated with rhCHI3L1 from a commercial source (R&D Inc.) and rhCHI3L1 generated at Brown University (Brown). The cells were incubated for 24 hr with stimulation of rhCHI3L1 (500 ng/mL) at 37° C. mRNA was then extracted and the levels of mRNA for ACE2 and CTSL were evaluated by real time qRT-PCR and compared to vehicle controls. […]

Row | Molecule | levels of mRNA encoding Ace2 and cathepsin L (CTSL)
65 | rhCHI3L1: recombinant human CHI3L1 (chitinase 3 like 1) protein, from R&D Inc. or generated at Brown University | significantly upregulated

same assay, conditions: rhCHI3L1 250 or 500 ng/mL, 24 hr

Row | Molecule | levels of mRNA encoding ACE2, TMPRSS2, and CTSL
66 | rhCHI3L1: recombinant human CHI3L1 (chitinase 3 like 1) protein, from R&D Inc. or generated at Brown University | significantly upregulated

test system: TMPRSS2, CTSL and FURIN; assay: not given; type: cell-based, human; details: not given

Row | Molecule | basal and CHI3L1-stimulated expression of TMPRSS2, CTSL and FURIN
67 | CN1CC[C@H](c2c(O)cc(O)c3c(=O)cc(-c4ccccc4Cl)oc23)[C@H](O)C1 [Flavopiridol] | potently decreased

same assay, conditions: Calu-3 cells, rhCHI3L1 250 ng/mL, 24 hours, vs vehicle

Row | Molecule | levels of mRNA encoding TMPRSS2, CTSL and FURIN
68 | rhCHI3L1: recombinant human CHI3L1 (chitinase 3 like 1) protein, from R&D Inc. or generated at Brown University | significantly upregulated

target: CDK2 (Homo sapiens, UniProt P24941); assay: not given; details: cited from earlier work

Row | Molecule | Inhibitory potency CDK2
69 | Cn1cc(-c2cnn3c(N)c(Br)c([C@@H]4CCCNC4)nc23)cn1 [MK-8776] | ++
70 | COc1ccc(CNc2nc(N(CCO)CCO)nc3c2ncn3C(C)C)cc1 [CVT 313] | +
71 | NVP-LCQ195 | +++
72 | CN1CC[C@H](c2c(O)cc(O)c3c(=O)cc(-c4ccccc4Cl)oc23)[C@H](O)C1 [Flavopiridol] | +++
73 | Kenpaulione | +
74 | CGP60474 | +++
75 | Nc1nc(Nc2ccc(S(N)(=O)=O)cc2)nn1C(=O)c1c(F)cccc1F [JNJ-7706621] | ++++
76 | PHA-767491 | ++
77 | CNC(=O)c1nn(C)c2c1C(C)(C)Cc1cnc(Nc3ccc(N4CCN(C)CC4)cc3)nc1-2 [Milciclib] | +++
78 | CC(C)CC(=O)Nc1[nH]nc2c1CN(C(=O)C1CCN(C)CC1)C2(C)C [PHA-793887] | ++++
79 | CCCCOc1c(C(=O)c2c(F)cc(C)cc2F)c[nH]c2nncc1-2 [BMS-265246] | ++++
